# Values quoted from earlier work, collected in article PMC4894568 (PLoS ONE, 2016).
# Columns and labels:
# Influenza A virus [1] = system: Influenza A virus
# Influenza A virus [2] = conditions: mouse, in vivo
substance,measurement,setting,value
LL-37,infectivity of Influenza A virus,Influenza A virus [1],influenced the infectivity
same,infection with Influenza A virus in an infection model,Influenza A virus [2],prevented or inhibited the infection
